Assay results reported in US20260200897A1, “4-((5-(3-(4-(PYRIDIN-2-YL)CYCLOPENTYL)-1H-PYRAZOL-3-YL)AMINO)-BENZENESULFONAMIDE DERIVATIVES AND SIMILAR COMPOUNDS AS CDK INHIBITORS FOR THE TREATMENT OF CANCER” (BeOne Medicines I GmbH, priority 2023, published 2026).

Tests used:
[1] = molecular target: CDK1/Cyclin B1 (Homo sapiens, UniProt P06493); test: CDK1/Cyclin B1 TR-FRET biochemical assay, 1 mM ATP; conditions: 0.15 μM Rb (Ser780)-biotin substrate, 90 min reaction, Table 2
Method: (§1) Compounds disclosed herein were tested for inhibition of CDK2/Cyclin E1 or CDK1/Cyclin B kinase in an assay based on the time-resolved fluorescence-resonance energy transfer (TR-FRET) methodology. The assay was carried out in 384-well low volume black plates in a reaction mixture containing CDK2/Cyclin E1 or CDK1/Cyclin B1, 1 mM ATP for CDK2/Cyclin E1 and CDK1/Cyclin B1, 0.15 μM Rb (Ser780)-biotin substrate and 0-10 μM compound in buffer containing 50 mM HEPES pH7.0, 0.02% NaN3, 0.01% BSA, 0.1 mM Orthovanadate, 50 mM MgCl2, 1 mM DTT and 0.005% Tween-20. The kinase was incubated with compound for 60 minutes at room temperature and the reaction was initiated by the addition of ATP and Rb (Ser780)-biotin substrate. After reaction at room temperature for 90 minutes, an equal volume of stop/detection solution was added according to the manufacture's instruction (Cisbio Bioassays). The stop/detection solution contained Streptavidin-XL665 and Anti-pRb (Ser780) mAb-Eu Cryptate in Detection buffer (Cisbio Bioassays). Plates were incubated at room temperature for 60 minutes, and the TR-FRET signals (ex337 nm, em665 nm/620 nm) were recorded on a PHERAstar FSX plate reader (BMG Labtech). The inhibition percentage of CDK2/Cyclin E1 or CDK1/Cyclin B1 kinase activity in presence of increasing concentrations of compounds was calculated based on the ratio of fluorescence at 665 nm to that at 620 nm. The IC50 for each compound was derived from fitting the data to the four-parameter logistic equation by Dotmatics.

[2] = molecular target: CDK2/Cyclin E1 (Homo sapiens, UniProt P24941); test: CDK2/Cyclin E1 TR-FRET biochemical assay, 1 mM ATP; conditions: 0.15 μM Rb (Ser780)-biotin substrate, 90 min reaction, Table 2
Method: as §1

CDK1/Cyclin B1, sequence (P06493 whole entry): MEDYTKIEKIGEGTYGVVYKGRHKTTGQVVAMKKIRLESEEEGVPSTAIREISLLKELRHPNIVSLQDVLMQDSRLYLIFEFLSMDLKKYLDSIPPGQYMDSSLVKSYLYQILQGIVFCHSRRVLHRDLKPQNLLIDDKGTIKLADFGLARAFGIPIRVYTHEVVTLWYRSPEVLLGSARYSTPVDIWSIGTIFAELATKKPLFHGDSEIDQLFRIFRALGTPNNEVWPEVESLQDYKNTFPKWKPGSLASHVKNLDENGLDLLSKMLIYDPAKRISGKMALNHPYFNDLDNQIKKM
CDK1/Cyclin B1, sequence (P14635 whole entry partner): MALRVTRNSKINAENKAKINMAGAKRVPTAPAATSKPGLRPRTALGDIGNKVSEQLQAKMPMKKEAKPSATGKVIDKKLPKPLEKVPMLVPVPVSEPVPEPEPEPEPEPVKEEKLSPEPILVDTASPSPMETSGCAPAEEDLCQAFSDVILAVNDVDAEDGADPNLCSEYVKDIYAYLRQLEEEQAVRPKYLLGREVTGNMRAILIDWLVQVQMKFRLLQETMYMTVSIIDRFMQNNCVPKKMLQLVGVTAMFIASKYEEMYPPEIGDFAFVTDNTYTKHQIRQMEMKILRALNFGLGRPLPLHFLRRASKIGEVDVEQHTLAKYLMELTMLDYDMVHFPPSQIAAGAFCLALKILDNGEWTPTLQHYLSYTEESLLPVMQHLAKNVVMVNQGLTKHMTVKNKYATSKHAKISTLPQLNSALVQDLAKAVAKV

Q: For `CC(C)(C)c1cnc(C2CCC(c3cc(Nc4ccc5c(c4)CN=S5(C)=O)n[nH]3)C2)o1` (single isomer, unassigned) [Example 169b, 5-((5-(3-(5-(tert-butyl)oxazol-2-yl)cyclopentyl)-1H-pyrazol-3-yl)amino)-1-methyl-3H-1λ^4-benzo[d]isothiazole 1-oxide], which IC50 [1] is on record?
A: The IC50 was 2350 nM.

Q: And the IC50 [2]?
A: The IC50 was 21 nM.

Q: `CC(C)(C)c1ccc([C@H]2CC[C@H](c3cc(Nc4ccc5c(c4F)CNS5(=O)=O)n[nH]3)C2)o1` (relative stereo) [Example 108, trans-5-((5-(3-(5-(tert-butyl)furan-2-yl)cyclopentyl)-1H-pyrazol-3-yl)amino)-4-fluoro-2,3-dihydrobenzo[d]isothiazole 1,1-dioxide] was tested. Which IC50 [1] did it give?
A: Its IC50 is greater than 10000 nM.

Q: What about the IC50 [2] of the same compound?
A: Its IC50 is 8510 nM.

Q: Which results are given for `CC(C)(C)c1cccc(C2CCC(c3cc(Nc4ccc5c(c4F)CNS5(=O)=O)[nH]n3)C2)n1` (centres unmarked) [Example 118, 5-((3-(3-(6-(tert-butyl)pyridin-2-yl)cyclopentyl)-1H-pyrazol-5-yl)amino)-4-fluoro-2,3-dihydrobenzo[d]isothiazole 1,1-dioxide]?
A: IC50 [1]: > 10000 nM; IC50 [2]: 725 nM

Q: With `CCOC(=O)c1nc(C2CCC(c3cc(Nc4ccc5c(c4F)CNS5(=O)=O)n[nH]3)C2)oc1C(C)(C)C` (centres unmarked) [Example 114, ethyl 5-(tert-butyl)-2-(3-(3-((4-fluoro-1,1-dioxido-2,3-dihydrobenzo[d]isothiazol-5-yl)amino)-1H-pyrazol-5-yl)cyclopentyl)oxazole-4-carboxylate] as the compound, how does the IC50 [1] read?
A: Its IC50 is greater than 10000 nM.

Q: What about the IC50 [2] of the same compound?
A: The IC50 was 429 nM.

Q: How did the IC50 [1] turn out when `CC(C)(C)c1cc(C2CCC(c3cc(Nc4ccc5c(c4F)CNS5(=O)=O)n[nH]3)C2)ccn1` (centres unmarked) [Example 129, 5-((5-(3-(2-(tert-butyl)pyridin-4-yl)cyclopentyl)-1H-pyrazol-3-yl)amino)-4-fluoro-2,3-dihydrobenzo[d]isothiazole 1,1-dioxide] was run?
A: Its IC50 is greater than 10000 nM.

Q: What about the IC50 [2] of the same compound?
A: The IC50 was 8020 nM.

Q: Which results are given for `Cc1ccnc(C2CCC(c3cc(Nc4ccc5c(c4F)CNS5(=O)=O)n[nH]3)C2)n1` (centres unmarked) [Example 124, 4-fluoro-5-((5-(3-(4-methylpyrimidin-2-yl)cyclopentyl)-1H-pyrazol-3-yl)amino)-2,3-dihydrobenzo[d]isothiazole 1,1-dioxide]?
A: IC50 [1]: 8470 nM; IC50 [2]: 107 nM

Q: Which IC50 [1] does the source give for `CC(C)c1cnc(C2CCC(c3cc(Nc4ccc5c(c4F)CN=S5(C)=O)n[nH]3)C2)o1` (centres unmarked) [Example 170] here?
A: Its IC50 is 1440 nM.

Q: And the IC50 [2]?
A: Its IC50 is 5.4 nM.

Q: Which IC50 [1] does the source give for `CC(C)(O)c1cc(C2CCC(c3cc(Nc4ccc5c(c4F)CS(=O)(=O)N5)n[nH]3)C2)n[nH]1` (centres unmarked) [Example 150, 4-fluoro-5-((5-(3-(5-(2-hydroxypropan-2-yl)-1H-pyrazol-3-yl)cyclopentyl)-1H-pyrazol-3-yl)amino)-1,3-dihydrobenzo[c]isothiazole 2,2-dioxide] here?
A: Its IC50 is greater than 10000 nM.

Q: And the IC50 [2]?
A: The IC50 was 189 nM.

Q: Which IC50 [1] does the source give for `CC(C)(O)c1cnc(C2CCC(c3cc(Nc4ccc5c(c4F)CS(=O)(=O)C5)n[nH]3)C2)o1` (centres unmarked) [Example 179, 4-fluoro-5-((5-(3-(5-(2-hydroxypropan-2-yl)oxazol-2-yl)cyclopentyl)-1H-pyrazol-3-yl)amino)-1,3-dihydrobenzo[c]thiophene 2,2-dioxide] here?
A: The IC50 was 537 nM.

Q: And the IC50 [2]?
A: The IC50 was 1.5 nM.

Q: With `O=S1(=O)NCc2c1ccc(Nc1cc(C3CCC(c4ncc(C5CC5)o4)C3)[nH]n1)c2F` (centres unmarked) [Example 116, 5-((5-(3-(5-cyclopropyloxazol-2-yl)cyclopentyl)-1H-pyrazol-3-yl)amino)-4-fluoro-2,3-dihydrobenzo[d]isothiazole 1,1-dioxide] as the compound, how does the IC50 [1] read?
A: Its IC50 is greater than 10000 nM.

Q: And the IC50 [2]?
A: Its IC50 is 98 nM.

Q: With `CC(C)(C)n1ccc(C2CCC(c3cc(Nc4ccc5c(c4F)CNS5(=O)=O)n[nH]3)C2)n1` (centres unmarked) [Example 98, 5-((5-(3-(1-(tert-butyl)-1H-pyrazol-3-yl)cyclopentyl)-1H-pyrazol-3-yl)amino)-4-fluoro-2,3-dihydrobenzo[d]isothiazole 1,1-dioxide] as the compound, how does the IC50 [1] read?
A: The IC50 was greater than 10000 nM.

Q: What about the IC50 [2] of the same compound?
A: Its IC50 is 453 nM.

Q: `Cc1[nH]nc(C(C)(C)C)c1O[C@@H]1CC[C@H](c2cc(Nc3ccc4c(c3F)CNS4(=O)=O)n[nH]2)C1` (relative stereo) [Example 80, cis-5-((5-(3-((3-(tert-butyl)-5-methyl-1H-pyrazol-4-yl)oxy)cyclopentyl)-1H-pyrazol-3-yl)amino)-4-fluoro-2,3-dihydrobenzo[d]isothiazole 1,1-dioxide] was tested. Which IC50 [1] did it give?
A: The IC50 was greater than 10000 nM.

Q: What about the IC50 [2] of the same compound?
A: Its IC50 is 1120 nM.

Q: With `CC(C)c1ccnc(C2CCC(c3cc(Nc4ccc5c(c4F)CS(=O)(=O)C5)n[nH]3)C2)c1` (centres unmarked) [Example 178, 4-fluoro-5-((5-(3-(4-isopropylpyridin-2-yl)cyclopentyl)-1H-pyrazol-3-yl)amino)-1,3-dihydrobenzo[c]thiophene 2,2-dioxide] as the compound, how does the IC50 [1] read?
A: The IC50 was 1520 nM.

Q: What about the IC50 [2] of the same compound?
A: Its IC50 is 7 nM.

Q: Which IC50 [1] does the source give for `CC(C)(C)c1ccnc(C2CCC(c3cc(Nc4ccc5c(c4F)CS(=O)(=O)N5)n[nH]3)C2)c1` (centres unmarked) [Example 155, 5-((5-(3-(4-(tert-butyl)pyridin-2-yl)cyclopentyl)-1H-pyrazol-3-yl)amino)-4-fluoro-1,3-dihydrobenzo[c]isothiazole 2,2-dioxide] here?
A: Its IC50 is 685 nM.

Q: What about the IC50 [2] of the same compound?
A: Its IC50 is 4.6 nM.

Q: How did the IC50 [1] turn out when `CC(C)c1cnc(C2CCC(c3cc(Nc4ccc5c(c4)CS(=O)(=O)N5)n[nH]3)C2)o1` (single isomer, unassigned) [Example 138a, cis-5-((5-(3-(5-isopropyloxazol-2-yl)cyclopentyl)-1H-pyrazol-3-yl)amino)-1,3-dihydrobenzo[c]isothiazole 2,2-dioxide] was run?
A: The IC50 was 160 nM.

Q: And the IC50 [2]?
A: Its IC50 is 1.8 nM.

Q: For `Cc1cc(C(C)(C)C)cc(C2CCC(c3cc(Nc4ccc5c(c4F)CNS5(=O)=O)n[nH]3)C2)n1` (centres unmarked) [Example 123, 5-((5-(3-(4-(tert-butyl)-6-methylpyridin-2-yl)cyclopentyl)-1H-pyrazol-3-yl)amino)-4-fluoro-2,3-dihydrobenzo[d]isothiazole 1,1-dioxide], which IC50 [1] is on record?
A: The IC50 was greater than 10000 nM.

Q: What about the IC50 [2] of the same compound?
A: The IC50 was 1740 nM.

Q: What does the source list for `CC(C)c1cnc(C2CCC(c3cc(Nc4ccc5c(c4F)CNS5(=O)=O)n[nH]3)C2)o1` (single isomer, unassigned) [Example 109d, 4-fluoro-5-((5-(3-(5-isopropyloxazol-2-yl)cyclopentyl)-1H-pyrazol-3-yl)amino)-2,3-dihydrobenzo[d]isothiazole 1,1-dioxide]?
A: IC50 [1]: > 10000 nM; IC50 [2]: 158 nM

Q: With `CC(C)c1cnc(C2CCC(c3cc(Nc4ccc5c(c4F)CS(=O)(=O)N5)n[nH]3)C2)o1` (single isomer, unassigned) [Example 152b, cis-4-fluoro-5-((5-(3-(5-isopropyloxazol-2-yl)cyclopentyl)-1H-pyrazol-3-yl)amino)-1,3-dihydrobenzo[c]isothiazole 2,2-dioxide] as the compound, how does the IC50 [1] read?
A: The IC50 was 4580 nM.

Q: And the IC50 [2]?
A: The IC50 was 19 nM.

Q: For `CC(C)(C)c1ccnc(C2CCC(c3cc(Nc4ccc(S(N)(=O)=O)cc4F)n[nH]3)C2)c1` (centres unmarked) [Example 1, 4-((5-(3-(4-(tert-butyl)pyridin-2-yl)cyclopentyl)-1H-pyrazol-3-yl)amino)-3-fluorobenzenesulfonamide], which IC50 [1] is on record?
A: The IC50 was greater than 10000 nM.

Q: And the IC50 [2]?
A: The IC50 was 100 nM.

Q: For `CC(C)(C)c1cnc(C2CCC(c3cc(Nc4cc5c(cc4F)S(=O)(=O)NC5)n[nH]3)C2)o1` (single isomer, unassigned) [Example 17a, 5-((5-(3-(5-(tert-butyl)oxazol-2-yl)cyclopentyl)-1H-pyrazol-3-yl)amino)-6-fluoro-2,3-dihydrobenzo[d]isothiazole 1,1-dioxide], which IC50 [1] is on record?
A: Its IC50 is 2090 nM.

Q: And the IC50 [2]?
A: The IC50 was 3.9 nM.

Q: For `CC(C)c1cnc(C2CCC(c3cc(Nc4ccc5c(c4F)CNS5(=O)=O)n[nH]3)C2)o1` (single isomer, unassigned) [Example 109b, 4-fluoro-5-((5-(3-(5-isopropyloxazol-2-yl)cyclopentyl)-1H-pyrazol-3-yl)amino)-2,3-dihydrobenzo[d]isothiazole 1,1-dioxide], which IC50 [1] is on record?
A: The IC50 was greater than 10000 nM.

Q: And the IC50 [2]?
A: The IC50 was 172 nM.

Q: Which results are given for `CC(C)c1cnc(C2CCC(c3cc(Nc4ccc(S(N)(=O)=O)cc4F)n[nH]3)C2)o1` (centres unmarked) [Example 7, 3-fluoro-4-((5-(3-(5-isopropyloxazol-2-yl)cyclopentyl)-1H-pyrazol-3-yl)amino)benzenesulfonamide]?
A: IC50 [1]: > 10000 nM; IC50 [2]: 93 nM

Q: Which IC50 [1] does the source give for `Cc1cc(C(C)(C)C)cc(C2CCC(c3cc(Nc4ccc5c(c4F)CS(=O)(=O)N5)n[nH]3)C2)n1` (centres unmarked) [Example 164, 5-((5-(3-(4-(tert-butyl)-6-methylpyridin-2-yl)cyclopentyl)-1H-pyrazol-3-yl)amino)-4-fluoro-1,3-dihydrobenzo[c]isothiazole 2,2-dioxide] here?
A: The IC50 was greater than 10000 nM.

Q: What about the IC50 [2] of the same compound?
A: The IC50 was 285 nM.

Q: How did the IC50 [1] turn out when `CC(C)(C)c1cnc(C2CCC(c3cc(Nc4ccc5c(c4F)CNS5(=O)=O)n[nH]3)C2)s1` (centres unmarked) [Example 95, 5-((5-(3-(5-(tert-butyl)thiazol-2-yl)cyclopentyl)-1H-pyrazol-3-yl)amino)-4-fluoro-2,3-dihydrobenzo[d]isothiazole 1,1-dioxide] was run?
A: The IC50 was greater than 10000 nM.

Q: What about the IC50 [2] of the same compound?
A: The IC50 was 7200 nM.

Q: `CC(C)(C)c1ccnnc1O[C@@H]1CC[C@H](c2cc(Nc3ccc4c(c3F)CNS4(=O)=O)n[nH]2)C1` (relative stereo) [Example 37, cis-5-((5-(3-((4-(tert-butyl)pyridazin-3-yl)oxy)cyclopentyl)-1H-pyrazol-3-yl)amino)-4-fluoro-2,3-dihydrobenzo[d]isothiazole 1,1-dioxide] was tested. Which IC50 [1] did it give?
A: Its IC50 is 11 nM.

Q: What about the IC50 [2] of the same compound?
A: Its IC50 is 0.5 nM.
